The values that follow come from patent US20230391786A1, “cGAS INHIBITORS” (Eli Lilly and Company, priority 2022, published 2023).

Chain of recombinant human cGAS (Q8N884 whole entry): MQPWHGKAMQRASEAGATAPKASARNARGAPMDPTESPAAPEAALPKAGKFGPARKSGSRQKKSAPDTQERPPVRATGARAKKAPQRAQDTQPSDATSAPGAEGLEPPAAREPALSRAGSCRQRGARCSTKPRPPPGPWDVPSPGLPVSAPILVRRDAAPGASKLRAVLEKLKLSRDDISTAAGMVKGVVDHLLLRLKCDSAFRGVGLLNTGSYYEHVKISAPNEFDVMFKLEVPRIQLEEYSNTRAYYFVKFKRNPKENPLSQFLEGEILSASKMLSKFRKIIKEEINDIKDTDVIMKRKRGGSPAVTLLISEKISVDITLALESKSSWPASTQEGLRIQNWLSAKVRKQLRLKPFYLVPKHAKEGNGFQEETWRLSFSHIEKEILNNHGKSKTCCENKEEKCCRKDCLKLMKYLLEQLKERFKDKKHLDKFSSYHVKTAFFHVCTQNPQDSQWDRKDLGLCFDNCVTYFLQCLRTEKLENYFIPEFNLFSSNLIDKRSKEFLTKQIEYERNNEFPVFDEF

One assay addresses recombinant human cGAS (Homo sapiens (Human), UniProt Q8N884). The experiment in a line: In vitro inhibition assay of cGAS activity (cGAMP production, RapidFire mass spectrometry). It is filed as biochemical. The following applies: 10 nM recombinant human cGAS, 60 nM 75-bp dsDNA, ATP, GTP, room temperature 3 hours, read-out: IC50 (μM), In vitro inhibition assay for Compounds 1-94. The procedure: Expression and Purification of Recombinant cGAS Protein: Insert cDNA encoding full-length of human cGAS into a modified bacterial expression vector containing an in-frame His6-tag. Induce the E. coli strain BL21(DE3) harboring the plasmid with 1 mM IPTG (Isopropyl β-D-1-thiogalactopyranoside) at 18° C. overnight. Purify the His6-tagged cGAS protein over HISpur Ni-NTA resin in the presence of benzonase and RNase followed by Superdex 200 size exclusion chromatography with storage buffer (50 mM Tris-HCl pH 7.5, 300 mM NaCl, 1 mM DTT, 10% glycerol).
In vitro inhibition assay of cGAS activity: Add a 5 μL mixture containing 10 mM Tris-Cl pH 7.5, 50 mM NaCl, 5 mM MgCl2, 1 mM DTT, 0.01% Triton X-100, 60 nM 75-bp dsDNA, […], 50 μM GTP, 10 nM of recombinant human cGAS, and serial dilutions of a test compound in DMSO to a 384-well plate and incubate at room temperature for 3 hours. Quench the reaction by the addition of 100 μL of stop solution containing 0.1% formic acid and 0.1 μM internal standard (3′3′-difluoro cGAMP). Measure the amount of cGAMP produced by RapidFire 365 mass spectrometry and evaluate inhibitory effect of a compound by plotting percent specific inhibition of cGAMP production against log concentration of the test compound. Calculate IC50 values using a 4-parameter non-linear logistic equation (y=(S0+((SInf−S0)/(1+((qAC50/x)^nHill))))).
Broadly, the IC50 is the concentration needed to halve the response being measured. Regarding `NC(=O)COc1cc(Cl)c(F)c2[nH]cc(-c3cn[nH]c3)c12` [Example 71, 2-[[6-Chloro-7-fluoro-3-(1H-pyrazol-4-yl)-1H-indol-4-yl]oxy] acetamide], the concentration for half-maximal inhibition (IC50) worked out at 0.0463 µM. As for `N#CCOc1cc(Cl)c(F)c2[nH]cc(-n3ccnc3)c12` [Example 72, 2-[(6-Chloro-7-fluoro-3-imidazol-1-yl-1H-indol-4-yl)oxy]acetonitrile], the IC50 amounted to 0.0772 µM. For the compound `OCCC1CCc2c(-c3cn[nH]c3)c3ccc(Cl)c(Cl)c3n2C1` (stereo not drawn) [Example 73, 2-[3,4-Dichloro-10-(1H-pyrazol-4-yl)-6,7,8,9-tetrahydropyrido[1,2-a]indol-7-yl] ethanol], the half-inhibitory concentration (IC50) is 0.062 µM. Still for that read-out and setting: in the case of `O=C1CCCN1C1CCc2c(-c3cn[nH]c3)c3ccc(Cl)c(Cl)c3n2C1` (stereo not drawn) [Example 74, 1-[3,4-Dichloro-10-(1H-pyrazol-4-yl)-6,7,8,9-tetrahydropyrido[1,2-a]indol-7-yl]pyrrolidin-2-one] it was 0.0847 µM; in that of `CN1Cc2c(-c3cn[nH]c3)c3ccc(Cl)c(Cl)c3n2CC1=O` [Example 75, 6,7-Dichloro-2-methyl-10-(1H-pyrazol-4-yl)-1,2-dihydropyrazino[1,2-a]indol-3(4H)-one], 0.045 µM; in that of `O=C1Cn2c(c(-c3cn[nH]c3)c3ccc(Cl)c(Cl)c32)CN1CCO` [Example 76, 6,7-Dichloro-2-(2-hydroxyethyl)-10-(1H-pyrazol-4-yl)-1,2-dihydropyrazino[1,2-a]indol-3(4H)-one], 0.0452 µM. With `O=C(O)C1CCCc2c(-c3cn[nH]c3)c3ccc(Cl)c(Cl)c3n2C1` (stereo not drawn) [Example 77, 3,4-Dichloro-11-(1H-pyrazol-4-yl)-7,8,9,10-tetrahydro-6H-azepino[1,2-a]indole-7-carboxylic acid], the IC50 came out at 0.0157 µM.

With `OC1CCCc2c(-c3cn[nH]c3)c3ccc(Cl)c(Cl)c3n2C1` (stereo not drawn) [Example 78, 3,4-Dichloro-11-(1H-pyrazol-4-yl)-7,8,9,10-tetrahydro-6H-azepino[1,2-a]indol-7-ol], the half-maximal inhibitory concentration (IC50) is 0.0427 µM.

As to `O=C1Cn2c(c(-c3cn[nH]c3)c3ccc(Cl)c(Cl)c32)CCN1CCO` [Example 79, 7,8-Dichloro-3-(2-hydroxyethyl)-11-(1H-pyrazol-4-yl)-2,3-dihydro-1H-[1,4]diazepino[1,7-a]indol-4(5H)-one], the IC50 amounted to 0.0753 µM. Consider `O=C1NC(CO)Cn2c1c(-c1cn[nH]c1)c1ccc(Cl)c(Cl)c12` (stereo not drawn) [Example 80, 6,7-Dichloro-3-(hydroxymethyl)-10-(1H-pyrazol-4-yl)-3,4-dihydro-2H-pyrazino[1,2-a] indol-1-one], for which the 50% inhibitory concentration (IC50) came to 0.0818 µM.

In the case of `CN1CCOCC1CC(=O)N1CCn2c(c(-c3cn[nH]c3)c3ccc(Cl)c(Cl)c32)C1` (stereo not drawn) [Example 81, 1-[6,7-Dichloro-10-(1H-pyrazol-4-yl)-3,4-dihydro-1H-pyrazino[1,2-a]indol-2-yl]-2-(4-methylmorpholin-3-yl)ethanone], the IC50 was 0.0223 µM. For `CC(=O)N1CCOC(CC(=O)N2CCn3c(c(-c4cn[nH]c4)c4ccc(Cl)c(Cl)c43)C2)C1` (stereo not drawn) [Example 82, 2-(4-Acetylmorpholin-2-yl)-1-[6,7-dichloro-10-(1H-pyrazol-4-yl)-3,4-dihydro-1H-pyrazino[1,2-a]indol-2-yl]ethanone], the concentration for half-maximal inhibition (IC50) was found to be 0.046 µM. On to `CN1CCn2c(c(-c3cn[nH]c3)c3ccc(Cl)c(Cl)c32)C1=O` [Example 83, 6,7-Dichloro-2-methyl-10-(1H-pyrazol-4-yl)-3,4-dihydropyrazino[1,2-a]indol-1-one], for which the concentration for half-maximal inhibition (IC50) was determined as 0.0754 µM. `CS(=O)(=O)NCCn1cc(-c2cn[nH]c2)c2c(OCC#N)cc(Cl)c(Cl)c21` [Example 84, N-[2-[6,7-Dichloro-4-(cyanomethoxy)-3-(1H-pyrazol-4-yl)indol-1-yl]ethyl]methanesulfonamide]: the 50% inhibitory concentration (IC50) is 0.0815 µM. The same measure, in the same setting: as for `CN1CCn2c(c(-c3cn[nH]c3)c3c(OCC#N)cc(Cl)c(Cl)c32)C1=O` [Example 85, 2-((6,7-Dichloro-2-methyl-1-oxo-10-(1H-pyrazol-4-yl)-1,2,3,4-tetrahydropyrazino[1,2-a]indol-9-yl)oxy)acetonitrile], the figure is 0.0257 µM; as for `CN1CCn2c(c(-c3cn[nH]c3)c3c(NCC#N)cc(Cl)c(Cl)c32)C1=O` [Example 86, 2-[[6,7-Dichloro-2-methyl-1-oxo-10-(1H-pyrazol-4-yl)-3,4-dihydropyrazino[1,2-a]indol-9-yl]amino]acetonitrile], 0.0485 µM. On the same count and under the same terms, as for `CN1CCn2c(c(-c3cn[nH]c3)c3c(NCCO)cc(Cl)c(Cl)c32)C1=O` [Example 87, 6,7-Dichloro-9-((2-hydroxyethyl)amino)-2-methyl-10-(1H-pyrazol-4-yl)-3,4-dihydropyrazino[1,2-a]indol-1(2H)-one], the figure is 0.029 µM; as for `N#CCOc1cc(Cl)c(Cl)c2c1c(-c1cn[nH]c1)c1n2CCNC1` [Example 88, 2-((6,7-Dichloro-10-(1H-pyrazol-4-yl)-1,2,3,4-tetrahydropyrazino[1,2-a]indol-9-yl)oxy)acetonitrile], 0.0219 µM; as for `N#CCOc1cc(Cl)c(Cl)c2c1c(-c1cn[nH]c1)c1n2CCN(C(=O)CO)C1` [Example 89, 2-((6,7-Dichloro-2-(2-hydroxyacetyl)-10-(1H-pyrazol-4-yl)-1,2,3,4-tetrahydropyrazino[1,2-a]indol-9-yl)oxy)acetonitrile], 0.0112 µM. For `CCOc1cc(Cl)c(Cl)c2c1c(-c1cn[nH]c1)c1n2CCNC1` [Example 90, 6,7-Dichloro-9-ethoxy-10-(1H-pyrazol-4-yl)-1,2,3,4-tetrahydropyrazino[1,2-a]indole], the IC50 came out at 0.0587 µM. Turning to `CCOc1cc(Cl)c(Cl)c2c1c(-c1cn[nH]c1)c1n2CCN(C(=O)CO)C1` [Example 91, 1-[6,7-Dichloro-9-ethoxy-10-(1H-pyrazol-4-yl)-3,4-dihydro-1H-pyrazino[1,2-a]indol-2-yl]-2-hydroxy-ethanone], the IC50 stood at 0.0405 µM. Regarding `N#CCNc1cc(Cl)c(Cl)c2c1c(-c1cn[nH]c1)c1n2CCN(C(=O)CO)C1` [Example 92, 2-[[6,7-Dichloro-2-(2-hydroxyacetyl)-10-(1H-pyrazol-4-yl)-3,4-dihydro-1H-pyrazino[1,2-a]indol-9-yl]amino]acetonitrile], the 50% inhibitory concentration (IC50) stood at 0.0287 µM. With `N#Cc1c(Cl)ccc2c(-c3cn[nH]c3)c[nH]c12` [Example 93, 6-Chloro-3-(1H-pyrazol-4-yl)-1H-indole-7-carbonitrile], the half-maximal inhibitory concentration (IC50) was determined as 0.18 µM. As to `Nc1nnc(-c2[nH]c3c(Cl)c(Cl)ccc3c2-c2cn[nH]c2)o1` [Example 94, 5-[6,7-Dichloro-3-(1H-pyrazol-4-yl)-1H-indol-2-yl]-1,3,4-oxadiazol-2-amine], the half-inhibitory concentration (IC50) came to 0.0224 µM.

Still in this assay, the particulars now being: 10 nM recombinant human cGAS, 60 nM 75-bp dsDNA, ATP, GTP, room temperature 3 hours, read-out: IC50 (μM), In vitro inhibition assay for Compounds 95-348.
For the compound `O=C1Cn2c(c(-c3cn[nH]c3)c3ccc(Cl)c(Cl)c32)CC(CO)N1` (stereo not drawn) [Example 101, 7,8-Dichloro-2-(hydroxymethyl)-11-(1H-pyrazol-4-yl)-2,3-dihydro-1H-[1,4]diazepino[1,7-a]indol-4(5H)-one], the 50% inhibitory concentration (IC50) worked out at 0.0705 µM. Turning to `O=C(NCc1[nH]c2c(Cl)c(Cl)ccc2c1-c1cn[nH]c1)c1cscn1` [Example 104, N-((6,7-Dichloro-3-(1H-pyrazol-4-yl)-1H-indol-2-yl)methyl)thiazole-4-carboxamide], the IC50 is 0.0872 µM. Take `CCS(=O)(=O)NCc1[nH]c2c(Cl)c(Cl)ccc2c1-c1cn[nH]c1` [Example 105, N-((6,7-Dichloro-3-(1H-pyrazol-4-yl)-1H-indol-2-yl)methyl)ethanesulfonamide]: the IC50 was 0.0712 µM.
